# In the supplement of paper PMC13380429:
# How the values were obtained:
# Conditions in all cases: 72 h
# Caco-2 [1] = test: cell viability relative to DMSO; higher = less toxic
# Calu-3 [2] = test: as above
# HepG2 [3] = test: as above
# U2OS [4] = test: as above
# Vero E6 [5] = test: as above
# Caco-2 [6] = test: relative viability EC50 (midpoint between 100% and the lowest measured viability); higher = less toxic
# Calu-3 [7] = test: as above
# HepG2 [8] = test: as above
# U2OS [9] = test: as above
# Vero E6 [10] = test: as above
# Caco-2 [11] = test: drug sensitivity score (DSS) for viability; higher = more toxic; extreme values may be limits of the assay
# Calu-3 [12] = test: as above
# HepG2 [13] = test: as above
# U2OS [14] = test: as above
# Vero E6 [15] = test: as above
Structure (SMILES),cell viability (Caco-2 [1]; 1 nM) [%],cell viability (Caco-2 [1]; 10 nM) [%],cell viability (Caco-2 [1]; 100 nM) [%],cell viability (Caco-2 [1]; 1000 nM) [%],cell viability (Caco-2 [1]; 10000 nM) [%],cell viability (Calu-3 [2]; 1 nM) [%],cell viability (Calu-3 [2]; 10 nM) [%],cell viability (Calu-3 [2]; 100 nM) [%],cell viability (Calu-3 [2]; 1000 nM) [%],cell viability (Calu-3 [2]; 10000 nM) [%],cell viability (HepG2 [3]; 1 nM) [%],cell viability (HepG2 [3]; 10 nM) [%],cell viability (HepG2 [3]; 100 nM) [%],cell viability (HepG2 [3]; 1000 nM) [%],cell viability (HepG2 [3]; 10000 nM) [%],cell viability (U2OS [4]; 1 nM) [%],cell viability (U2OS [4]; 10 nM) [%],cell viability (U2OS [4]; 100 nM) [%],cell viability (U2OS [4]; 1000 nM) [%],cell viability (U2OS [4]; 10000 nM) [%],cell viability (Vero E6 [5]; 1 nM) [%],cell viability (Vero E6 [5]; 10 nM) [%],cell viability (Vero E6 [5]; 100 nM) [%],cell viability (Vero E6 [5]; 1000 nM) [%],cell viability (Vero E6 [5]; 10000 nM) [%],relative viability EC50 (Caco-2 [6]) [µM],relative viability EC50 (Calu-3 [7]) [µM],relative viability EC50 (HepG2 [8]) [µM],relative viability EC50 (U2OS [9]) [µM],relative viability EC50 (Vero E6 [10]) [µM],drug sensitivity score (Caco-2 [11]),drug sensitivity score (Calu-3 [12]),drug sensitivity score (HepG2 [13]),drug sensitivity score (U2OS [14]),drug sensitivity score (Vero E6 [15])
O=C(O)c1ccc(N2N=C(Cc3ccccc3)/C(=C\c3ccc(-c4ccccc4F)o3)C2=O)cc1 [GS-143],103,104,99.2,93.8,87.5,102,99.1,101,105,99.8,107,110,95.4,95.8,105,105,106,101,104,98.8,106,99,99.9,101,82.7,> 10,> 10,> 10,> 10,> 10,0.2,0,0,0,0.3
Cc1ccc(C(=O)Nc2ccc(CN3CCN(C)CC3)c(C(F)(F)F)c2)cc1C#Cc1cnc2[nH]ncc2c1 [GZD824],102,98.6,86.7,59,2.4,96.7,86.8,76.8,45.9,3.7,106,98.8,71.2,27.1,0.4,99.5,104,77.5,32.5,0.3,103,102,86.5,19.1,0.2,1.17,0.497,0.297,0.42,0.365,10.1,13.9,17.2,15.4,16.6
CCCCC#Cc1nc(NC)c2ncn([C@@H]3O[C@H](CO)[C@@H](O)[C@H]3O)c2n1 [HEMADO],103,89,102,104,102,102,108,84.6,102,91.1,111,103,99.7,103,104,102,102,96.1,103,101,110,101,105,105,98.5,> 10,> 10,> 10,> 10,> 10,0,0,0,0,0
O=C(CSc1nc2c(c(=O)n1-c1ccccc1)SCC2)Nc1ccc(-c2ccccc2)cn1 [IWP-L6],89.2,102,96.2,92.6,90.1,94.4,96.6,91.7,98.8,87.5,100,92.1,105,106,99.3,95.4,97.6,93.4,97.1,94.9,97,97.7,95.3,95.1,96.1,> 10,> 10,> 10,> 10,> 10,0,0,0,0,0
"COc1cc2c(cc1OC)[C@H](C)NCC2 [Isoquinoline,-6,7-dimethoxy-1-methyl-1,2,3,4-tetrahydro,]",92.5,89.1,99.4,92.3,112,109,104,101,109,96.1,100,95.6,99.9,97.4,101,102,103,104,90.4,102,97.3,96.5,96.8,96.5,106,> 10,> 10,> 10,> 10,> 10,0,0,0,0,0
Cc1cc(-c2ncc(CC(=O)Nc3ccc(-c4cnccn4)cn3)cc2C)ccn1 [LGK-974],97.1,96.6,89.2,91.2,75.2,93.6,97,84.2,90.3,87.8,95,99.7,97.9,96.9,39.6,97.4,96.8,92.7,93.4,91.4,93,96.6,90.7,93.4,107,> 10,> 10,2.77,> 10,> 10,1.8,0.8,3.7,0,0
Cc1c(C(=O)NCc2cccnc2)nn(-c2ccc(Cl)cc2Cl)c1-c1ccc(Cl)cc1 [MJ-15],88,87.7,92.2,84.3,79.1,90.5,86.7,103,90.4,97,91.8,111,96.2,101,98.8,99.2,96.5,102,88.8,95.3,92.5,96.4,94.8,90.2,99.2,> 10,> 10,> 10,> 10,> 10,0,0,0,0,0
